From patent US7314861B2, “Melanin-concentrating hormone analogs” (priority 2001, dated 2008)
Where a SMILES comes first, the peptide text is derived from it. Bridges are numbered along the chain shown (N, C = ends).

Key:
human MCH-2R = human MCH-2R (Homo sapiens, UniProt Q969V1); test: Radiolabeled MCH-R binding assay (SPA based), MCH-2R; settings: MCH-2R IC50 (nM)
Procedure: (§1) Cell membranes were prepared on ice. Each T-75 flask was rinsed twice with 10 ml of Enzyme-free Cell Dissociation Buffer (Specialty Media, Lavallette, N.J.), and the cell monolayer was detached in an additional 10 ml of Enzyme-free Cell Dissociation Buffer by incubation at room temperature for 10 minutes. Dissociated cells were centrifuged (500×g for 10 minutes at 4° C.), resuspended in 5 ml homogenization buffer (10 mM Tris-HCl, pH 7.4, 0.01 mM Pefabloc, 10 μM phosphoramidon, 40 μg/ml bacitracin) and then homogenized using a glass homogenizer (10-15 strokes). The homogenate was centrifuged for 10 minutes (1,000×g at 4° C.). The resulting supernatant was then centrifuged at 38,700×g for 15 minutes at 4° C. Pelleted membranes were resuspended (passed through 25 gauge needle 5 times), snap-frozen on liquid nitrogen, and stored at −80° C. until use.
(§2) For the SPA-based assay, WGA-PVT beads (NEN Life Sciences Products) were resuspended in Dulbecco's PBS with calcium and magnesium (500 mg beads in 4 ml PBS). […] The suspension was mixed gently for 20 minutes, 12.3 ml of assay buffer and protease inhibitors were added (final concentration given): 2 μg/ml leupeptin, 10 μM phosphoramidon, 40 μg/ml bacitracin, 5 μg/ml aprotinin, 0.1 mM Pefabloc.
(§3) Coated beads were kept on ice until use. […] Binding reactions were allowed to proceed at room temperature for 3 hours. Quantitation was performed by scintillation counting (TopCount device).

human MCH-1R [1] = molecular target: T1, human MCH-1R (Homo sapiens, UniProt Q99705); test: Aequorin bioluminescence functional assay, MCH-1R; settings: for MCH-1R Activation %: % Activation at 10 μM, aequorin functional assay
Procedure: (§4) The aequorin bioluminescence assay can be used to measure the activity of G protein-coupled receptors that couple through the Gα protein subunit family consisting of Gq and G11. Such coupling leads to phospholipase C activation, intracellular calcium mobilization and protein kinase C activation.
(§5) Following approximately 40 hours of expression the apo-aequorin in the cells was charged for 4 hours with coelenterazine (10 μM) under reducing conditions (300 μM reduced glutathione) in ECB buffer (140 mM NaCl, 20 mM KCl, 20 mM HEPES-NaOH [pH=7.4], 5 mM glucose, 1 mM MgCl2, 1 mM CaCl2, 0.1 mg/ml bovine serum albumin).
(§6) The cells were harvested, washed once in ECB medium and resuspended to 500,000 cells/ml. 100 μl of cell suspension (corresponding to 5×10^4 cells) was then injected into the test plate containing MCH or MCH analogs, and the integrated light emission was recorded over 30 seconds, in 0.5 second units. 20 μL of lysis buffer (0.1% final Triton X-100 concentration) was then injected and the integrated light emission recorded over 10 seconds, in 0.5 second units. The “fractional response” values for each well were calculated by taking the ratio of the integrated response to the initial challenge to the total integrated luminescence including the Triton X-100 lysis response.

human MCH-R2 = human MCH-R2 (Homo sapiens, UniProt Q969V1); test: Aequorin bioluminescence functional assay, MCH-2R; settings: aequorin functional assay; for MCH-2R Activation %: % Activation at 10 μM
Procedure: as §4, §5, §6

human MCH-1R [2] = molecular target: T1, human MCH-1R; test: Radiolabeled MCH-R binding assay (SPA based), MCH-1R
Procedure: as §1, §2, §3

T1 sequence (Q99705 whole entry): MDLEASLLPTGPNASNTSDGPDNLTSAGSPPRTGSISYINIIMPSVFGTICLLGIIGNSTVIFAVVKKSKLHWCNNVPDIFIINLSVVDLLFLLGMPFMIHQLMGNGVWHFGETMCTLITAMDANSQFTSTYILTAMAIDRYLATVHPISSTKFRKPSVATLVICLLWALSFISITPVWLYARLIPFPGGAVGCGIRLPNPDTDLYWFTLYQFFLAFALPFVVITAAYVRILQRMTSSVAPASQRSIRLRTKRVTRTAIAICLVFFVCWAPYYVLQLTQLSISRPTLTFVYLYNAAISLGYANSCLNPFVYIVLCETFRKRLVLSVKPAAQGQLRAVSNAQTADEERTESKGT
Chain of human MCH-2R (Q969V1 whole entry): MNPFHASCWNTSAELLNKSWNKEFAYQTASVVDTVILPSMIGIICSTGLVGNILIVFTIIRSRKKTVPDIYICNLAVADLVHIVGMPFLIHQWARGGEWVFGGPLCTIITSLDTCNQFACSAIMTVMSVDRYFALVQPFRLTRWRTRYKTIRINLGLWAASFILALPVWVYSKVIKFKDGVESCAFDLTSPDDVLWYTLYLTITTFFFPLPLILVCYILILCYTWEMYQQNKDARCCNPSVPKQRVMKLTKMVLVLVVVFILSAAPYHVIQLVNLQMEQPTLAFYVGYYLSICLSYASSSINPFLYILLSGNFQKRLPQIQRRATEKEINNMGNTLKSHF
Chain of human MCH-R2 (Q969V1 whole entry): as above

SMILES | IC50 (human MCH-2R; Table 3) | MCH-1R Activation % (human MCH-1R [1]; Table 3) | MCH-2R Activation % (human MCH-R2; Table 3) | IC50 (human MCH-1R [2]) | IC50 (human MCH-2R; Table 2) | EC50 (human MCH-1R [1]) | MCH-1R Activation % (human MCH-1R [1]; Table 2) | EC50 (human MCH-R2; MCH-2R EC50 (nM), Table 2) | MCH-2R Activation % (human MCH-R2; Table 2)
CSCC[C@@H]1NC(=O)[C@@H](NC(=O)[C@H](CCCNC(=N)N)NC(=O)[C@H](CC(C)C)NC(=O)[C@H](CCSC)NC(=O)[C@H](CC(=O)O)NC(=O)[C@H](Cc2ccccc2)NC(=O)[C@@H](N)CC(=O)O)CSSC[C@@H](C(=O)N[C@@H](Cc2c[nH]c3ccccc23)C(=O)N[C@@H](CCC(N)=O)C(=O)N[C@H](C(=O)O)C(C)C)NC(=O)[C@@H]2CCCN2C(=O)[C@H](CCCNC(=N)N)NC(=O)[C@H](Cc2ccc(O)cc2)NC(=O)[C@H](C(C)C)NC(=O)[C@H](CCCNC(=N)N)NC(=O)CNC(=O)[C@H](C)NC1=O [compound 48] (H-DFDMLRCMAGRVYRPCWQV-OH; disulfide 7-16; N-terminus and C-terminus assumed) | 9.5 nM | 96% | 92% | 0.9 nM | – | – | – | – | –
CSCC[C@H](NC(=O)[C@H](CC(=O)O)NC(=O)[C@H](Cc1ccccc1)NC(=O)[C@@H](N)CC(=O)O)C(=O)N[C@@H](C)C(=O)N[C@@H](CCCNC(=N)N)C(=O)N[C@H]1CSSC[C@@H](C(=O)N[C@@H](Cc2c[nH]c3ccccc23)C(=O)N[C@@H](CCC(N)=O)C(=O)N[C@H](C(=O)O)C(C)C)NC(=O)[C@@H]2CCCN2C(=O)[C@H](CCCNC(=N)N)NC(=O)[C@H](Cc2ccc(O)cc2)NC(=O)[C@H](C(C)C)NC(=O)[C@H](CCCNC(=N)N)NC(=O)CNC(=O)[C@H](CC(C)C)NC(=O)[C@H](CCSC)NC1=O [compound 45] (H-DFDMARCMLGRVYRPCWQV-OH; disulfide 7-16; N-terminus and C-terminus assumed) | 2 nM | 96% | 94% | 0.3 nM | – | – | – | – | –
CSCC[C@@H]1NC(=O)[C@@H](NC(=O)[C@H](CCCNC(=N)N)NC(=O)[C@H](CC(C)C)NC(=O)[C@H](CCSC)NC(=O)[C@H](CC(=O)O)NC(=O)[C@H](Cc2ccccc2)NC(=O)[C@@H](N)CC(=O)O)CSSC[C@@H](C(=O)N[C@@H](Cc2c[nH]c3ccccc23)C(=O)N[C@@H](CCC(N)=O)C(=O)N[C@H](C(=O)O)C(C)C)NC(=O)[C@@H]2CCCN2C(=O)[C@H](CCCNC(=N)N)NC(=O)[C@H](Cc2ccc(O)cc2)NC(=O)[C@H](C)NC(=O)[C@H](CCCNC(=N)N)NC(=O)CNC(=O)[C@H](CC(C)C)NC1=O [compound 50] (H-DFDMLRCMLGRAYRPCWQV-OH; disulfide 7-16; N-terminus and C-terminus assumed) | 25 nM | 95% | 98% | 0.9 nM | – | – | – | – | –
CSCC[C@@H]1NC(=O)[C@@H](NC(=O)[C@@H](N)CCCNC(=N)N)CSSC[C@@H](C(N)=O)NC(=O)[C@@H]2CCCN2C(=O)[C@H](CCCNC(=N)N)NC(=O)[C@H](Cc2ccc(O)cc2)NC(=O)[C@H](C(C)C)NC(=O)[C@H](CCCNC(=N)N)NC(=O)CNC(=O)[C@H](CC(C)C)NC1=O [compound 39] | – | – | – | 0.13 nM | 11 nM | 14 nM | 106% | 11.6 nM | 109%
